We go through 10 compounds from PubChem BioAssay (NCI).

Some test systems named below: UACC-257 melanoma; HCT-15 colon; TK-10 renal; HCC-2998 colon; HS 578T breast; HCT-116 colon; IGROV1 ovarian; NCI-H460 lung; OVCAR-4 ovarian; MALME-3M melanoma.
What all share (assay): inhibition of tumour cell growth, NCI panel, 48 h

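1) Cells in 96-well plates. 2) Compound, 48 h, 5 concentrations. 3) Linear interpolation between surrounding doses. 4) Unreached endpoint = highest concentration. GI50: concentration for 50% inhibition of growth. Definition used: TGI = concentration required for complete inhibition of growth.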

For `Cc1ccc(S(=O)(=O)c2c(COC(=O)c3cccc(C)c3)c(-c3ccccc3)nn2C)cc1`, the GI50 with UACC-257 melanoma, in the assay with HCT-15 colon, in the assay with TK-10 renal, with HCC-2998 colon, in the assay with HS 578T breast and in the assay on HCT-116 colon was more than 100 µM each time. Further, the GI50 in the assay on IGROV1 ovarian, with NCI-H460 lung, with OVCAR-4 ovarian and in the assay with MALME-3M melanoma was more than 100 µM throughout. Further, the TGI in the assay with UACC-257 melanoma, in the assay on HCT-15 colon, in the assay with TK-10 renal, in the assay with HCC-2998 colon, with HS 578T breast and in the assay on HCT-116 colon was more than 100 µM throughout. Moreover, the TGI with IGROV1 ovarian, in the assay on NCI-H460 lung, in the assay on OVCAR-4 ovarian and in the assay with MALME-3M melanoma was more than 100 µM each time.

As for `Cc1cc(NC(=O)NC(=O)c2ccccc2NC(=O)C(C)N)ccc1Oc1ncc(Br)cn1` (centres undefined), the TGI in the assay with UACC-257 melanoma worked out at 32.6 µM; in the assay with HCT-15 colon, 39.1 µM; with TK-10 renal, 39.4 µM; in the assay on HCC-2998 colon, 4.38 µM; with HS 578T breast, 1.49 µM; in the assay on HCT-116 colon, 27.2 µM. In addition, the TGI was found to be 29.7 µM in the assay on IGROV1 ovarian, 19.2 µM in the assay with NCI-H460 lung, 36.7 µM with OVCAR-4 ovarian and 33.4 µM with MALME-3M melanoma.

`Cc1[nH]c2ccccc2c1CCCO`: the GI50 in the assay with UACC-257 melanoma is more than 100 µM; in the assay with HCT-15 colon, more than 100 µM; with TK-10 renal, more than 100 µM; in the assay with HCC-2998 colon it was more than 100 µM; in the assay on HS 578T breast, 54.9 µM; in the assay with HCT-116 colon, more than 100 µM. Moreover, the GI50 was 82.9 µM with IGROV1 ovarian, more than 100 µM with NCI-H460 lung, more than 100 µM in the assay with OVCAR-4 ovarian and more than 100 µM in the assay on MALME-3M melanoma. Further, the TGI in the assay on UACC-257 melanoma, with HCT-15 colon, in the assay on TK-10 renal, in the assay on HCC-2998 colon, with HS 578T breast and with HCT-116 colon was more than 100 µM throughout. In addition, the TGI with IGROV1 ovarian, in the assay with NCI-H460 lung, in the assay with OVCAR-4 ovarian and in the assay on MALME-3M melanoma was more than 100 µM each time.

For `C=C(C(N)=O)c1ccc([N+](=O)[O-])o1`, the TGI in the assay with UACC-257 melanoma was 21.7 µM; in the assay with HCT-15 colon it was 27.9 µM; with TK-10 renal it was 27.2 µM; in the assay with HCC-2998 colon, 33.6 µM; in the assay with HS 578T breast, 77.1 µM; in the assay on HCT-116 colon it was 14.7 µM. Moreover, the TGI with IGROV1 ovarian was 23.4 µM; with NCI-H460 lung, 59 µM; in the assay on OVCAR-4 ovarian, 29 µM; with MALME-3M melanoma, 5.51 µM.

Turning to `COc1cc2c(cc1OC)[C@H](C)N1CCc3cc(OC)c(OC)cc3[C@@H]1C2`, the TGI in the assay on UACC-257 melanoma, in the assay with HCT-15 colon, in the assay with TK-10 renal, in the assay with HCC-2998 colon, with HS 578T breast and in the assay on HCT-116 colon was more than 100 µM in each case. The TGI in the assay on IGROV1 ovarian, in the assay on NCI-H460 lung, in the assay with OVCAR-4 ovarian and with MALME-3M melanoma was more than 100 µM in each case.

As for `CN1CCN(C(=O)C(C)(C)c2ccc(C(=O)Nc3cn4cc(-c5ccncc5)ccc4n3)cc2)CC1`, the GI50 with UACC-257 melanoma is 0.296 µM; with HCT-15 colon, 0.312 µM; in the assay with TK-10 renal, 0.484 µM; in the assay on HCC-2998 colon, 0.502 µM; in the assay with HS 578T breast, 0.327 µM; with HCT-116 colon, 0.0802 µM. The GI50 in the assay with IGROV1 ovarian is 0.22 µM; with NCI-H460 lung, 0.303 µM; in the assay on OVCAR-4 ovarian, 0.35 µM; in the assay with MALME-3M melanoma, 0.26 µM. Besides, the TGI is 15.1 µM in the assay with UACC-257 melanoma; 7.2 µM in the assay on HCT-15 colon; more than 100 µM in the assay on TK-10 renal; 9.7 µM with HCC-2998 colon; 3.66 µM in the assay with HS 578T breast; more than 100 µM in the assay on HCT-116 colon. Also, the TGI with IGROV1 ovarian was 6 µM; in the assay with NCI-H460 lung it was 34.3 µM; in the assay on OVCAR-4 ovarian, more than 100 µM; with MALME-3M melanoma, 0.773 µM.

On to `COC(=O)C1(Cc2ccc3c(c2)CCC3)Cc2ccccc2C1O` (centres undefined), for which the TGI came out at 31.5 µM in the assay on UACC-257 melanoma; 50.7 µM with HCT-15 colon; 53.1 µM in the assay with TK-10 renal; 31.9 µM in the assay on HCC-2998 colon; 48.1 µM in the assay with HS 578T breast; 31.8 µM with HCT-116 colon. The TGI was 51.7 µM in the assay on IGROV1 ovarian, 38.1 µM in the assay with NCI-H460 lung, 27.8 µM with OVCAR-4 ovarian and 37.6 µM in the assay with MALME-3M melanoma.

As for `O=C(Nc1cccc(-n2cc(-c3ccncc3)c(-c3ccc(Cl)c(O)c3)n2)c1)Nc1cc(C(F)(F)F)cc(C(F)(F)F)c1`, the GI50 in the assay on UACC-257 melanoma is 0.89 µM; in the assay with HCT-15 colon it was 0.591 µM; with TK-10 renal, 0.843 µM; in the assay on HCC-2998 colon, 0.977 µM; in the assay on HS 578T breast, 1.2 µM; in the assay with HCT-116 colon, 0.487 µM. For the same compound, the GI50 in the assay with IGROV1 ovarian is 0.795 µM; in the assay with NCI-H460 lung, 0.391 µM; in the assay on OVCAR-4 ovarian, 0.795 µM; in the assay with MALME-3M melanoma, 0.831 µM. Moreover, the TGI in the assay on UACC-257 melanoma was determined as 2.24 µM; in the assay on HCT-15 colon, 3.01 µM; with TK-10 renal it was 2.75 µM; in the assay on HCC-2998 colon it was 2.04 µM; in the assay with HS 578T breast, 4.01 µM; in the assay on HCT-116 colon, 1.24 µM. In addition, the TGI is 2.55 µM with IGROV1 ovarian, 1.36 µM in the assay on NCI-H460 lung, 3.28 µM in the assay with OVCAR-4 ovarian and 2.24 µM in the assay with MALME-3M melanoma.

As to `C#CC#CC#CC#CC#CC#CC#CC#CCC1OCC(COC(=O)O[C@@H](C(=O)O[C@H]2C[C@@]3(O)[C@@H](OC(=O)c4ccccc4)[C@@H]4[C@]5(OC(C)=O)CO[C@@H]5C[C@H](O)[C@@]4(C)C(=O)[C@H](OC(C)=O)C(=C2C)C3(C)C)[C@@H](NC(=O)c2ccccc2)c2ccccc2)O1` (some centres undefined), the GI50 with UACC-257 melanoma was more than 8.95 µM; with HCT-15 colon, more than 9.51 µM; in the assay on TK-10 renal it was more than 16.3 µM; with HCC-2998 colon, 0.287 µM; in the assay with HS 578T breast it was 0.108 µM; in the assay on HCT-116 colon, 0.0533 µM. Also, the GI50 in the assay with IGROV1 ovarian was 0.235 µM; in the assay with NCI-H460 lung it was 0.0426 µM; with OVCAR-4 ovarian it was more than 33.3 µM; in the assay on MALME-3M melanoma, 0.28 µM. The TGI in the assay on UACC-257 melanoma, in the assay on HCT-15 colon, in the assay on TK-10 renal, with HCC-2998 colon, in the assay on HCT-116 colon and with IGROV1 ovarian was more than 33.3 µM in each case. The TGI in the assay with NCI-H460 lung, in the assay with OVCAR-4 ovarian and in the assay with MALME-3M melanoma was more than 33.3 µM throughout.

Turning to `O=C1Nc2ccc(Br)cc2C1=Nc1cccnc1`, the TGI in the assay on UACC-257 melanoma was 55.9 µM; in the assay with HCT-15 colon, 59.6 µM; in the assay with TK-10 renal, more than 100 µM; with HCC-2998 colon, 40 µM; in the assay on HS 578T breast, 60.5 µM; in the assay on HCT-116 colon it was 44.5 µM. Moreover, the TGI with IGROV1 ovarian is 60.7 µM; with NCI-H460 lung, more than 100 µM; in the assay with OVCAR-4 ovarian it was 25.1 µM; in the assay with MALME-3M melanoma it was 46.8 µM.
